Measured values taken from patent publication US12083097B2, “Dual TNFR1 antagonists and TNER2 agonists for use in renal diseases” (SERODUS AS, priority 2020, dated 2024).
Entries after “also recorded” stand apart in the source; their conditions may differ.

What was measured:
[1] = tested on: patients with diabetic nephropathy; test: Clinical Phase 2a study, ACR in patients with diabetic nephropathy; format: in vivo, human; conditions: for Average baseline ACR / Average ACR (4 weeks): doses 0.3 and 0.625 mg/kg daily pooled
Method: A clinical Phase 2a study with compound 1 was conducted in patients with diabetic nephropathy. The patients were divided into two different subgroups having either macroalbuminuria (ACR>300 mg/g) or microalbuminuria (ACR 30-300 mg/g), and each subgroup were treated with 0.3 mg of compound 1/kg daily or 0.625 mg of compound 1/kg daily for 4 weeks.

sTNFR1 = test: Urine sTNFR1-to-creatinine in Px-UNx diabetic nephropathy rat model (ELISA); format: in vivo; conditions: for urine sTNFR1 corrected for creatinine, pooled data from Table 2: Treated Px-UNx rats (n = 33), doses 1, 3, 10 mg/kg pooled
Method: Three active doses of 1, 3 and 10 mg/kg of compound 1 were administered orally once daily to 90% pancreatectomized and uninephrectomized rats over 49 days. A control group received placebo, and another control group underwent surgery to mimic the 90% pancreatectomy (Px) and uninephrectomy (UNx) without affecting the function of the kidney or the pancreas (Sham model). The Sham group also received placebo. The conclusion from the rat study was that compound 1 reduced the level of sTNFR1 in the urine over the full treatment period (see FIG. 2). […] The daily doses in the rat model may be converted into equivalent doses in humans (Guidance for Industry: Estimating the Maximum Safe Starting Dose in Initial Clinical Trials for Therapeutics in Adult Healthy Volunteers, 2005). Thus, the 1 mg/kg daily dose corresponds to a human daily dose of 0.16 mg/kg or 11.2 mg for a 70-kg patient. Likewise, a 3 mg/kg daily dose corresponds to a human daily dose of 0.48 mg/kg or 33.6 mg for a 70-kg patient. Finally, a 10 mg/kg daily dose corresponds to a human daily dose of 1.6 mg/kg or 112.7 mg for a 70-kg patient.
(§1) In the examples below, the sTNFR1 and sTNFR2 were measured using the commercial ELISA kits mouse/rat TNFRI/TNFRII Quantikine ELISA kits from R&D Systems according to the manufacturers protocol. However, for the purpose of measuring the sTNFR1 and sTNFR2 in humans for determining the relevant population groups according the present invention, the method described in Krolewski A. S. Diabetes Care 2015; 38:954-962 and Krolewski A. S. et al. Kidney Int. 2017 June; 91(6): 1300-1311 should be used.
(§2) The pancreatectomy and uninephrectomy (see below) were conducted during a single surgical procedure (Secher T et al. Diabetes 2018 July; 67(Supplement 1)). Animals were operated in a randomized fashion during several consecutive surgical days. After an overnight full-fast with grids installed in the cages, the rats were pancreatectomized and uninephrectomized under isoflurane anesthesia. Pre-operative analgesia, antibiotics and fluid replacement were administered. Rats were not offered any food from one day before to one day after the surgery, From the second day after surgery they were fed ad libitum.
(§3) In short, the 90% pancreatectomy is performed by removing the complete portion of the tail, body and a part of the pancreatic head by gentle abrasion with dental applicator. The major blood vessels to the stomach, spleen and gut are left intact so no other organs are compromised.
(§4) Briefly, the right kidney is visited and the right ureter, kidney artery and kidney vein identified, and ligated with suture. Hereafter, the right kidney is removed.
(§5) The sham operation is conducted to mimic the Px-UNx surgical procedure as best as possible. In brief, anesthesia and analgesia as well as opening and closuring the abdominal cavity are conducted as described above. After the abdominal cavity is opened, the pancreas and right kidney will be exposed, but left untouched and intact.
Rats were placed individually in metabolic cages for 16 h from the afternoon to the next morning. Randomized subsets of the study groups were placed in the cages over several days (as there were fewer cages than rats). Rats were supplied with chow and water ad libitum. Cage enrichment (igloo, plastic stick to sit on) was included if possible. Total urine volume was recorded, and urine stored at −80° C. Large amounts were aliquoted in several 0.5 ml Eppendorph tubes prior to freezing.
Urine samples were stored at −80° C. until analysis. sTNFR1 in rat urine was measured using commercial ELISA kits (R&D Systems mouse/rat TNFRI/TNFRII Quantikine ELISA kits) according to the manufacturer's instructions. Urine creatinine was measured using the CREP2 kit (Roche Diagnostics, Germany) on the Cobas™ C-501 autoanalyzer as per the manufacturer's instructions. Urinary albumin was measured using the Bethyl Laboratories rat albumin ELISA as per the manufacturer's instructions. […]

sTNFR2 = test: Urine sTNFR2-to-creatinine in Px-UNx diabetic nephropathy rat model (ELISA); format: in vivo; conditions: for urine concentration of sTNFR2 corrected for urine creatinine: Group 3, Px-UNx rats, 1 mg/kg
Method: as §1, §2, §3, §4, §5
Rats were placed individually in metabolic cages for 16 h from the afternoon to the next morning. […] Total urine volume was recorded, and urine stored at −80° C. […]
Urine samples were stored at −80° C. until analysis. sTNFR1 in rat urine was measured using commercial ELISA kits (R&D Systems mouse/rat TNFRI/TNFRII Quantikine ELISA kits) according to the manufacturer's instructions. Urine creatinine was measured using the CREP2 kit (Roche Diagnostics, Germany) on the Cobas™ C-501 autoanalyzer as per the manufacturer's instructions. Urinary albumin was measured using the Bethyl Laboratories rat albumin ELISA as per the manufacturer's instructions. The urinary albumin-to-creatinine ratio (UACR) was calculated. […]
Likewise, the urine concentrations of sTNFR2 corrected for urine concentration of creatinine (pg/mg) were measured at baseline and after 4 and 7 weeks in group 3.

O=C(O)CC/C=C\C[C@@H]1CO[C@H](c2ccccc2Cl)O[C@@H]1c1ccccc1O [compound 1, (Z)-6-((2S,4S,5R)-2-(2-chlorophenyl)-4-(2-hydroxyphenyl)-1,3-dioxan-cis-5-yl) hex-4-enoic acid] was tested, and the “difference in ACR effect between the two doses” value ([1]; 0.3 vs 0.625 mg/kg daily, each subgroup, 4 weeks) was “No statistic significant difference between the two doses”, the “ACR reduction in macroalbuminuria versus microalbuminuria sub-group” value ([1]; 4 weeks, doses pooled) was “statistic significant higher reduction in ACR” and the “Average baseline ACR” value ([1]; Macroalbuminuria (ACR>300 mg/g) patients, n = 11, baseline) was 691 mg/g. For the same compound, the “ACR reduction (%)” value ([1]; Macroalbuminuria patients, n = 11, 4 weeks vs baseline, doses pooled) was 26.2%, the “Average ACR (4 weeks)” value ([1]; Macroalbuminuria patients, n = 11, after 4 weeks) was 510 mg/g and the “Average baseline ACR” value ([1]; Microalbuminuria (ACR 30-300 mg/g) patients, n = 38, baseline) was 91.8 mg/g. For the same compound, the “ACR reduction (%)” value ([1]; Microalbuminuria patients, n = 38, 4 weeks vs baseline, doses pooled) was 20.9%, the “Average ACR (4 weeks)” value ([1]; Microalbuminuria patients, n = 38, after 4 weeks) was 72.6 mg/g and the “reduction in ACR from baseline” value ([1]; both subgroups (micro- and macroalbuminuria), 4 weeks) was “statistically significant reduction in ACR”. The “urine concentration of sTNFR1 corrected for urine creatinine” value (from here on “urine concentration of sTNFR1 corrected”) (sTNFR1; Group 3, Px-UNx rats, 1 mg/kg orally once daily, 0 weeks (baseline)) was 243.38 pg/mg, the “urine concentration of sTNFR1 corrected” value (sTNFR1; Group 3, Px-UNx rats, 1 mg/kg orally once daily, 4 weeks) was 373.28 pg/mg and the “urine concentration of sTNFR1 corrected” value (sTNFR1; Group 3, Px-UNx rats, 1 mg/kg orally once daily, 7 weeks) was 345.46 pg/mg. For the same compound, the “urine concentration of sTNFR1 corrected” value (sTNFR1; Group 4, Px-UNx rats, 3 mg/kg orally once daily, 0 weeks (baseline)) was 236.29 pg/mg, the “urine concentration of sTNFR1 corrected” value (sTNFR1; Group 4, Px-UNx rats, 3 mg/kg orally once daily, 4 weeks) was 313.80 pg/mg and the “urine concentration of sTNFR1 corrected” value (sTNFR1; Group 4, Px-UNx rats, 3 mg/kg orally once daily, 7 weeks) was 369.65 pg/mg. For the same compound, the “urine concentration of sTNFR1 corrected” value (sTNFR1; Group 5, Px-UNx rats, 10 mg/kg orally once daily, 0 weeks (baseline)) was 220.27 pg/mg, the “urine concentration of sTNFR1 corrected” value (sTNFR1; Group 5, Px-UNx rats, 10 mg/kg orally once daily, 4 weeks) was 348.50 pg/mg and the “urine concentration of sTNFR1 corrected” value (sTNFR1; Group 5, Px-UNx rats, 10 mg/kg orally once daily, 7 weeks) was 375.03 pg/mg. The “corrected urine sTNFR1 level versus placebo group” value (sTNFR1; Px-UNx rats, 1, 3, 10 mg/kg, 4 and 7 weeks, compared with Px-UNx placebo) was “capable of decreasing the level of sTNFR1; also recorded: consistently below the values for the placebo group”, the “difference in sTNFR1 effect between dosage levels” value (sTNFR1; Px-UNx rats, 1, 3 or 10 mg/kg) was “no statistically significant difference between dosage levels” and the “change in urine sTNFR1 from baseline versus placebo (FIG. 2)” value (sTNFR1; Px-UNx rats, pooled doses, 7-week period) was “significantly less than for the placebo control group”. For the same compound, the “urine sTNFR1 corrected for creatinine, pooled data from Table 2” value (from here on “urine sTNFR1 corrected for creatinine”) (sTNFR1; 0 weeks (baseline)) was 233.3 pg/mg, the “urine sTNFR1 corrected for creatinine” value (sTNFR1; 4 weeks) was 345.2 pg/mg and the “urine sTNFR1 corrected for creatinine” value (sTNFR1; 7 weeks) was 363.4 pg/mg. The “urine concentration of sTNFR2 corrected for urine creatinine” value (from here on “urine concentration of sTNFR2 corrected”) (sTNFR2; 0 weeks (baseline)) was 4561 pg/mg, the “urine concentration of sTNFR2 corrected” value (sTNFR2; 4 weeks) was 3302 pg/mg and the “urine concentration of sTNFR2 corrected” value (sTNFR2; 7 weeks) was 3264 pg/mg. The “change in urine TNFR2-to-creatinine from baseline versus placebo (FIG. 3)” value (sTNFR2; Px-UNx rats, 3 mg/kg, p.o., 4 and 7 weeks) was “decreasing levels of TNFR2 but much less compared to the placebo control group”.
